Values after ≈ are worked out from the molar mass of the structure shown. Read-outs that look alike come from different tables or passages of the source.
Legend:
Assay in all cases: CLSI broth microplate assay, MIC
Assay type in all cases: cell-based
[1] = tested on: S. aureus VISA strain Mu50; conditions: Staphylococcus aureus, read-out: Minimum inhibitory concentration (MIC mg/L) Mu50
MRSA strain BB568 = conditions: Staphylococcus aureus, read-out: Minimum inhibitory concentration (MIC mg/L) BB568
[2] = tested on: community-associated MRSA isolate USA300; conditions: Staphylococcus aureus, read-out: Minimum inhibitory concentration (MIC mg/L) USA300
E. faecalis VRE1 = conditions: Enterococcus faecalis
E. faecium VRE10 = conditions: Enterococcus faecium
MRSA strain EMRSA-15 = conditions: Staphylococcus aureus, read-out: Minimum inhibitory concentration (MIC mg/L) EMRSA-15
MRSA strain EMRSA-16 = conditions: Staphylococcus aureus, read-out: Minimum inhibitory concentration (MIC mg/L) EMRSA-16
[3] = VRE1, read-out: Minimum inhibitory concentration (MIC mg/L) VRE1
[4] = VRE10, read-out: Minimum inhibitory concentration (MIC mg/L) VRE10

| Structure (SMILES) | MIC [1] [mg/L] | MIC (MRSA strain BB568) [mg/L] | MIC [2] [mg/L] | MIC (E. faecalis VRE1; [3]) [mg/L] | MIC (E. faecium VRE10; [4]) [mg/L] | MIC (MRSA strain EMRSA-15) [mg/L] | MIC (MRSA strain EMRSA-16) [mg/L] | MIC ([1]; Mu50, Mueller-Hinton broth, 37° C.) [mg/L] | MIC (MRSA strain BB568; BB568, Mueller-Hinton broth, 37° C.) [mg/L] | MIC (E. faecalis VRE1; VRE1, Mueller-Hinton broth, 37° C., read-out: Minimum inhibitory concentration (MIC mg/L) VRE1) [mg/L] | MIC (E. faecium VRE10; VRE10, Mueller-Hinton broth, 37° C., read-out: Minimum inhibitory concentration (MIC mg/L) VRE10) [mg/L] | MIC (MRSA strain EMRSA-15; EMRSA-15, Mueller-Hinton broth, 37° C.) [mg/L] | MIC (MRSA strain EMRSA-16; EMRSA-16, Mueller-Hinton broth, 37° C.) [mg/L] |
| --- | --- | --- | --- | --- | --- | --- | --- | --- | --- | --- | --- | --- | --- |
| COc1cc2c(cc1OCCCC(=O)Nc1ccc(-c3cc(C(=O)Nc4ccc(N5CCOCC5)nc4)n(C)c3)cc1)N=C[C@@H]1CCCN1C2=O [Compound 53, (S)-4-(4-(4-((7-methoxy-5-oxo-2,3,5,11a-tetrahydro-1H-benzo[e]pyrrolo[1,2-a][1,4]diazepin-8-yl)oxy)butanamido)phenyl)-1-methyl-N-(6-morpholinopyridin-3-yl)-1H-pyrrole-2-carboxamide] | 2 (≈ 2.89 µM) | 4 (≈ 5.78 µM) | 4 (≈ 5.78 µM) | 1 (≈ 1.45 µM) | 0.5 (≈ 0.723 µM) | 1 (≈ 1.45 µM) | 2 to 4 (≈ 2.89 to 5.78 µM) | – | – | – | – | – | – |
| COc1cc2c(cc1OCCCC(=O)Nc1ccc(-c3cc(C(=O)Nc4ccc(OCCN5CCOCC5)cc4)n(C)c3)cc1)N=C[C@@H]1CCCN1C2=O [Compound 51, (S)-4-(4-(4-((7-methoxy-5-oxo-2,3,5,11a-tetrahydro-1H-benzo[e]pyrrolo[1,2-a][1,4]diazepin-8-yl)oxy)butanamido)phenyl)-1-methyl-N-(4-(2-morpholinoethoxyl)phenyl)-1H-pyrrole-2-carboxamide] | – | – | 2 (≈ 2.72 µM) | – | – | – | – | 1 (≈ 1.36 µM) | 2 (≈ 2.72 µM) | 0.5 (≈ 0.68 µM) | 1 (≈ 1.36 µM) | 2 (≈ 2.72 µM) | 2 (≈ 2.72 µM) |
| COC(=O)c1ccc(-c2ccc(NC(=O)CCCOc3cc4c(cc3OC)C(=O)N3CCC[C@H]3C=N4)cc2)s1 [Compound 18, (S)-methyl 5-(4-(4-((7-methoxy-5-oxo-2,3,5,11a-tetrahydro-1H-benzo[e]pyrrolo[1,2-a][1,4]diazepin-8-yl)oxy)butanamido)phenyl)thiophene-2-carboxylate, reference compound] | > 32 | > 32 | 32 (≈ 58.4 µM) | > 32 | 16 (≈ 29.2 µM) | > 32 | > 32 | – | – | – | – | – | – |
| COc1cc2c(cc1OCCCC(=O)Nc1ccc(-c3cc(C(=O)Nc4ccc(N5CCOCC5)cc4)n(C)c3)cc1)N=C[C@@H]1CCCN1C2=O [Compound 49, (S)-4-(4-(4-((7-methoxy-5-oxo-2,3,5,11a-tetrahydro-1H-benzo[e]pyrrolo[1,2-a][1,4]diazepin-8-yl)oxy)butanamido)phenyl)-1-methyl-N-(4-morpholinophenyl)-1H-pyrrole-2-carboxamide] | 1 (≈ 1.45 µM) | 2 (≈ 2.9 µM) | 2 (≈ 2.9 µM) | 0.5 (≈ 0.724 µM) | 0.5 to 1 (≈ 0.724 to 1.45 µM) | 2 (≈ 2.9 µM) | 2 (≈ 2.9 µM) | – | – | – | – | – | – |

Source: patent publication US9321774B2, “Pyrrolobenzodiazepines” (MEDIMMUNE LIMITED, priority 2012, dated 2016)
